The values that follow are results of earlier work, collected in patent US7241583B2, “TRL1 as an antifungal target” (Oxford Glycosciences (UK) Ltd, priority 2002, dated 2007).

The conditions of the data set: mice; DOX 2 mg/ml in 5% sucrose solution as drinking water, approx. 5 ml per day.

On to `C[C@H]1c2cccc(O)c2C(O)=C2C(=O)[C@]3(O)C(O)=C(C(N)=O)C(=O)[C@@H](N(C)C)[C@@H]3[C@@H](O)[C@@H]21` [DOX, doxycycline], for which the “concentration of DOX in kidney” value was > 10 mg/g of kidney, the “concentration of DOX in liver” value is reported as > 8 mg/g of liver and the “concentration of DOX in serum” value was “more than 2 mg/ml of serum”.
